In paper PMC11537999, “Identification of human pregnane X receptor antagonists utilizing a high-throughput screening platform” (Frontiers in Pharmacology, 2024):

Columns and labels:
hPXR [1] = molecular target: T1, hPXR (Homo sapiens, UniProt O75469); test: PXR luciferase reporter gene assay (qHTS antagonist mode, rifampicin co-treatment) in HepG2-CYP3A4-hPXR cells; format: cell-based; settings: 2 μM rifampicin, used as treatment concentration in HepaRG cells
T1 construct: expressed in transfected cells; provided by Dr. Taosheng Chen, St. Jude
T1 sequence (O75469 1-434): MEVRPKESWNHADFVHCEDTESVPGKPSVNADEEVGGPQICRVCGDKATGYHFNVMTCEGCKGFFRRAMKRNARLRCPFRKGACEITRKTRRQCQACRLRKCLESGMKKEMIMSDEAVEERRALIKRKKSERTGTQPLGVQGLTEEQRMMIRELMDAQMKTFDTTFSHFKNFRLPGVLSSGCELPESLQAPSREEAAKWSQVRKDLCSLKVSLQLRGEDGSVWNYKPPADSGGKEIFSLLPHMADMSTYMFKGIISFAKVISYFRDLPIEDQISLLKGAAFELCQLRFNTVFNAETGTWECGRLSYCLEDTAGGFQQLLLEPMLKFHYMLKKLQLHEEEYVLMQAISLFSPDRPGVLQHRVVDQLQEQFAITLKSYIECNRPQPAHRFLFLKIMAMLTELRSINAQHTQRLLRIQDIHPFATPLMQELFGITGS
Procedure: HepG2 cells stably transfected with a CYP3A4-luc promoter construct and hPXR expression plasmid were provided by Dr. Taosheng Chen (Department of Chemical Biology and Therapeutics, St. Jude Children’s Research Hospital) ([Lin et al., 2008]). Cells were thawed in EMEM (ATCC, Rockville, Maryland), supplemented with 10% Hyclone FBS (GE Healthcare Life Sciences, Logan, Utah) and 100 U/mL of Penicillin and 100 μg/mL of Streptomycin (Invitrogen, Carlsbad, CA) and kept in an incubator at 37°C and 5% CO2. To culture these HepG2-CYP3A4-hPXR cells, 500 μg/mL of Geneticin (GIBCO, Gaithersburg, MD) was added to the thawing media.
(§1) HepG2-CYP3A4-hPXR cells were dispensed into tissue culture treated 1536-well white assay plates (Greiner Bio-One North America, Monroe, NC) using a Multidrop Combi (Thermo Fisher Scientific Inc., Waltham, Massachusetts) at 2,500 cells/4 µL/well. The cell suspension was prepared using new assay media, which contained phenol red-free DMEM (GIBCO), 5% charcoal/dextran-treated FBS (Invitrogen), 1 mM sodium pyruvate (Invitrogen), 2 mM L-Glutamine (Invitrogen), and 100 U/mL of Penicillin and 100 μg/mL of Streptomycin (Invitrogen). All plates were then incubated for 4 h in a 37°C and 5% CO2 incubator. […] In the primary screen, each compound was tested at 7 concentrations ranging from 46 μM to 1.5 nM. 1 μL of rifampicin, a known PXR agonist, was also co-treated in each well, generating a final concentration of 2 μM, using a Flying Reagent Dispenser (Aurora Discovery, Carlsbad, California). All assay plates were placed in an incubator at 37°C with 5% CO2 for 23 h. Following the incubation period, 1 µL of CellTiter-Fluor reagent (Promega, Madison, Wisconsin) was added to each well and all assay plates were placed back into the incubator set at 37°C and 5% CO2 for 1 h. Fluorescence intensity at 540 nm was measured following excitation at 405 nm using a ViewLux plate reader (Perkin Elmer, Shelton, Connecticut), in order to assess cell viability following treatment. Directly after the fluorescent read, 4 μL of ONE-Glo Luciferase reagent (Promega, Madison, Wisconsin) was added to each well using a Flying Reagent Dispenser, and plates were left to sit at room temperature for 30 min. The luminescence of each plate was then measured using the ViewLux plate reader and data were expressed as relative luminescence units. Gross assay performance was assessed by calculating quality metrics, such as coefficient of variance (CV), signal-to-background ratio (S/B), and Z′ factor, a measure of statistical effect size frequently used to judge whether an assay can be scaled up to a large high-throughput screen ([Zhang et al., 1999]).
Data analysis was completed using a previously described protocol ([Huang et al., 2016]). […] Normalized percent activity for all test compounds was determined using the following equation: % activity = [(V compound - V DMSO)/(V DMSO–V pos)] × 100, where V compound denotes the compound well values, V pos denotes the median value of the positive control wells, and V DMSO denotes the median value of the DMSO-only wells. Following normalization, data points were corrected using DMSO-only plates included at the beginning and end of the compound plate stack using an in-house pattern correction algorithm in order to remove background patterns, as well as other small abnormalities within the dataset ([Southall et al., 2009]). […] Efficacy is then [a inf - a 0 ]. a=a0+ainf−a0 c^n/k^n+c^n
Curve class was further converted to curve rank by combining each class with efficacy, such that good quality, efficacious curves are assigned large absolute curve rank values. […] The activity outcome was based on the PXR antagonist readout activity and a cell viability counter screen.

hPXR [2] = molecular target: T1, hPXR; test: Pharmacological inhibition (IC50 shift) assay with varying rifampicin in HepG2-CYP3A4-hPXR cells; format: cell-based; settings: for shift in IC50 values with increasing rifampicin (in words): 5 μM, 7.5 µM or 10 µM rifampicin; for decrease in potency: co-treated with 2 µM versus 10 µM rifampicin; for IC50: triplicate
Procedure: as §1
Each curve was co-treated with 5 μM RIF, 7.5 μM RIF, or 10 μM RIF (a well-known PXR agonist) to determine pharmacological activity. […] Each curve was generated from a combination of all data points together.

IC70 values from the original NPACT screen (hPXR [1]) [µM]	shift in IC50 values with increasing rifampicin (in words) (hPXR [2])	decrease in potency (hPXR [2])	IC50 (hPXR [2]; co-treated with 5 μM RIF) [µM]	IC50 (hPXR [2]; co-treated with 7.5 μM RIF) [µM]	IC50 (hPXR [2]; co-treated with 10 μM RIF) [µM]	SMILES
5	generated a shift in IC50 values	more than 2 fold	3.46	4.57	7.76	CC(=O)O[C@H]1C[C@@]2(C)[C@@H](C[C@@H](O)[C@H]3[C@@]4(C)CC[C@@H](O)[C@@H](C)[C@@H]4CC[C@@]32C)/C1=C(\CCC=C(C)C)C(=O)O [fusidic acid]
4	generated a shift in IC50 values	more than 2 fold	1.6	3.32	5.46	COc1cc(-c2cn(C3CCc4c(F)cccc4N(CC(F)(F)F)C3=O)nn2)ccc1-n1cnc(C)c1 (stereo not drawn) [GSM2]
